# Assay results from patent US9284291B2, “Kappa opioid receptor compounds” (MediSynergies, LLC, priority 2014, dated 2016).
# How the values were obtained:
# Assay type in all cases: binding
# Kappa opioid receptor = Kappa opioid receptor (Homo sapiens, UniProt P41145); experiment: Opioid receptor affinity, NIMH PDSP screen, Kappa subtype
# Protocol: (§1) The compound of Example 7 was tested for activity vs. opioid receptor subtypes, at an initial concentration of 10 μM, through the NIMH Psychoactive Drug Screening Program (PDSP), operated by Dr. Bryan Roth and his colleagues in the Department of Pharmacology at the University of North Carolina (Chapel Hill, N.C.) through an agreement with the National Institute of Mental Health (NIMH).
# Mu opioid receptor = Mu opioid receptor (Homo sapiens, UniProt P35372); experiment: Opioid receptor affinity, NIMH PDSP screen, Mu subtype
# Mu opioid receptor, sequence (P35372 whole entry, species assumed): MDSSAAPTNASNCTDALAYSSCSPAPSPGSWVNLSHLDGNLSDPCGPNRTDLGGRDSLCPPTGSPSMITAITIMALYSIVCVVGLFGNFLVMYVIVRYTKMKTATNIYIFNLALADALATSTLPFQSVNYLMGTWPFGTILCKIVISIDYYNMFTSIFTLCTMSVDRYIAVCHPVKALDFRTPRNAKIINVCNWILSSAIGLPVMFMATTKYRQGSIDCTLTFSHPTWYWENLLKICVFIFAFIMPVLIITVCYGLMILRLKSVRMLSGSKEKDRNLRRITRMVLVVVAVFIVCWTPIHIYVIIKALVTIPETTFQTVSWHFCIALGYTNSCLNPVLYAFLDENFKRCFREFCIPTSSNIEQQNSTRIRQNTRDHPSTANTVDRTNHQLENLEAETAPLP
# Protocol: as §1
# Delta opioid receptor = Delta opioid receptor (Homo sapiens, UniProt P41143); experiment: Opioid receptor affinity, NIMH PDSP screen, Delta subtype
# Delta opioid receptor, sequence (P41143 whole entry): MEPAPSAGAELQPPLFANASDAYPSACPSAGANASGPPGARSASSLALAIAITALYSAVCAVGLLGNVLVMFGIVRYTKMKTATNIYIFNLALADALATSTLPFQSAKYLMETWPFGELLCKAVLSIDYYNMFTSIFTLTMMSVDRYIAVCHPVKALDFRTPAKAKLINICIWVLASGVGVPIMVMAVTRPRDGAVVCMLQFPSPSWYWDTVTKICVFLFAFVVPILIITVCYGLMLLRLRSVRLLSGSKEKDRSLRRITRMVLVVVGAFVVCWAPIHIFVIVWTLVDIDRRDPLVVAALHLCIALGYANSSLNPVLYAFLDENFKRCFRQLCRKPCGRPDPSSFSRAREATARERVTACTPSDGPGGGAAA
# Protocol: as §1
# Kappa opioid receptor, sequence (P41145 whole entry): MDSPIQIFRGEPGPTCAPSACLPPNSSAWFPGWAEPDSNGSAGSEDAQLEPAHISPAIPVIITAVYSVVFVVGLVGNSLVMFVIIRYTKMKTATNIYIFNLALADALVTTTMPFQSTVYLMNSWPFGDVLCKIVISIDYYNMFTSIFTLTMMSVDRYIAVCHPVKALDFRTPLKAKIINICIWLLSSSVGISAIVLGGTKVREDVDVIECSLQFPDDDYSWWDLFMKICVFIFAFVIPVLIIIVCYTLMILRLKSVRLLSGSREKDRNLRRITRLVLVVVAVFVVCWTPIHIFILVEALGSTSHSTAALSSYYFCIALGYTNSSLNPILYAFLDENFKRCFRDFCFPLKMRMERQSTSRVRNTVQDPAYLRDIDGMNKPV
structure (smiles),measurement,setting,value
CN(C)CCCC1(c2ccc(F)cc2)OCc2cc(-c3ncc[nH]3)ccc21 (stereo not shown) [Example 7],Ki,Kappa opioid receptor,0.047 µM
same,inhibition at 10 µM,Kappa opioid receptor; 10 μM,100%
same,inhibition at 10 µM,Mu opioid receptor,39.1%
same,inhibition at 10 µM,Delta opioid receptor,23.5%
